{"source": "PubChem BioAssay (NCI)", "test_in_all_cases": "growth of human tumour cells (NCI), 384-well format", "key": {"SNB-19 CNS": {"system": "SNB-19 CNS"}, "UACC-62 melanoma": {"system": "UACC-62 melanoma"}, "A498 renal": {"system": "A498 renal"}, "UACC-257 melanoma": {"system": "UACC-257 melanoma"}, "A549 NSCLC": {"system": "A549 NSCLC"}, "CAKI-1 renal": {"system": "CAKI-1 renal"}, "HL-60(TB) leukemia": {"system": "HL-60(TB) leukemia"}, "ACHN renal": {"system": "ACHN renal"}, "M14 melanoma": {"system": "M14 melanoma"}, "MDA-MB-435 melanoma": {"system": "MDA-MB-435 melanoma"}, "UO-31 renal": {"system": "UO-31 renal"}, "SW-620 colon": {"system": "SW-620 colon"}, "NCI-H23 lung": {"system": "NCI-H23 lung"}}, "note": "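At the GI50, growth is halved. TGI: concentration producing complete growth inhibition.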"}
{"smiles": "COC1(C(=O)N2Cc3nc(Cl)nc(N[C@H](C)c4cc(N)cc(C(F)(F)F)c4)c3C2)CCOCC1", "values": [{"measurement": "GI50", "setting": "SNB-19 CNS", "result": 19.3, "unit": "µM"}, {"measurement": "TGI", "setting": "SNB-19 CNS", "result": "> 100", "unit": "µM"}, {"measurement": "GI50", "setting": "UACC-62 melanoma", "result": 15.6, "unit": "µM"}, {"measurement": "TGI", "setting": "UACC-62 melanoma", "result": 29.1, "unit": "µM"}, {"measurement": "GI50", "setting": "A498 renal", "result": 14.1, "unit": "µM"}, {"measurement": "TGI", "setting": "A498 renal", "result": 35.3, "unit": "µM"}, {"measurement": "GI50", "setting": "UACC-257 melanoma", "result": 18.3, "unit": "µM"}, {"measurement": "TGI", "setting": "UACC-257 melanoma", "result": 33.3, "unit": "µM"}, {"measurement": "GI50", "setting": "A549 NSCLC", "result": 24.5, "unit": "µM"}, {"measurement": "TGI", "setting": "A549 NSCLC", "result": "> 100", "unit": "µM"}, {"measurement": "GI50", "setting": "CAKI-1 renal", "result": 6.99, "unit": "µM"}, {"measurement": "TGI", "setting": "CAKI-1 renal", "result": 35.4, "unit": "µM"}, {"measurement": "GI50", "setting": "HL-60(TB) leukemia", "result": 16.2, "unit": "µM"}, {"measurement": "TGI", "setting": "HL-60(TB) leukemia", "result": 29.8, "unit": "µM"}, {"measurement": "GI50", "setting": "ACHN renal", "result": 20.4, "unit": "µM"}, {"measurement": "TGI", "setting": "ACHN renal", "result": 67, "unit": "µM"}, {"measurement": "GI50", "setting": "M14 melanoma", "result": 17.5, "unit": "µM"}, {"measurement": "TGI", "setting": "M14 melanoma", "result": 32.3, "unit": "µM"}, {"measurement": "GI50", "setting": "MDA-MB-435 melanoma", "result": 17.9, "unit": "µM"}, {"measurement": "TGI", "setting": "MDA-MB-435 melanoma", "result": 36.9, "unit": "µM"}, {"measurement": "GI50", "setting": "UO-31 renal", "result": 15.2, "unit": "µM"}, {"measurement": "TGI", "setting": "UO-31 renal", "result": 29.2, "unit": "µM"}, {"measurement": "GI50", "setting": "SW-620 colon", "result": 17.9, "unit": "µM"}, {"measurement": "TGI", "setting": "SW-620 colon", "result": 40.2, "unit": "µM"}, {"measurement": "GI50", "setting": "NCI-H23 lung", "result": 14.2, "unit": "µM"}, {"measurement": "TGI", "setting": "NCI-H23 lung", "result": 38.6, "unit": "µM"}]}
